Measured values reported in US8163739B2, “2-arylthiazole-4-carboxamide derivatives, their preparation and use as pharmaceuticals” (Bayer Pharma Aktiengesellschaft, priority 2007, dated 2012).

System: TLR7
Experiment: TLR-induced cytokine release in human peripheral blood mononuclear cells (PBMC), TNF-alpha ELISA
Format: cell-based
Conditions: 18 hours incubation, TLR7 ligand, TNF-alpha by ELISA, read-out: EC50 (TNF-α TLR7)
Description: TLR-induced Cytokine Release in Human “Peripheral Blood Mononuclear Cells” (PBMC)
PBMCs isolated from human whole blood are stimulated using a TLR ligand.
The cytokine determination is carried out by means of ELISA kits; a proliferation/cell metabolism determination is carried out using Alamar Blue.
For the cell preparation, about 200 ml of blood are treated with an anticoagulant (e.g. citrate Monovettes). Per Leucosep tube, 15 ml of Histopaque (room temperature, RT) are poured in and forced downwards through the inserted frit by brief initial centrifugation (one minute at 1000×g, RT). 20 ml of blood are added to the tubes prepared in this way and centrifuged at 800×g for 15 minutes (RT). After centrifugation, the following layered arrangement results from the top to the bottom:
plasma-PBMC-Histopaque-filter disc-Histopaque-erythrocytes and granulocytes. The supernatant plasma is aspirated. The PBMC are transferred together with the underlying Histopaque to a new 50 ml tube, the contents of two Leucosep tubes always being added to one 50 ml tube. The 50 ml tubes are then filled to 50 ml with PBS. This cell suspension is centrifuged at 300×g (RT) for 10 minutes.
The liquid supernatant is tipped off and the cell pellet is resuspended with a little PBS and subsequently filled to 50 ml with PBS. This washing step is repeated twice. The resulting pellet is taken up in a defined volume of medium (with additives). For the testing of the substances, PBMC are incubated for 18 hours with titrated concentrations of the test substances, e.g. in the presence or absence of TLR7 or TLR9 ligands. On the next day, the supernatants are investigated for the content of TNF-alpha or other cyto- or chemokines by means of specific ELISA. The metabolic activity of the treated cells is determined with the aid of Alamar Blue.

Row | EC50 | Compound
1 | 85 nM | Cn1cc(NC(=O)c2csc(-c3cccc(S(C)(=O)=O)c3)n2)c(C(N)=O)n1 [Example 1.1, 2-(3-Methanesulphonylphenyl)thiazole-4-(3-carbamoyl-1-methyl-1H-pyrazol-4-yl)carboxamide]
2 | 1200 nM | Cn1ncc(NC(=O)c2csc(-c3ccc4c(c3)CCO4)n2)c1C(N)=O [Example 2.1, N-[5-(Aminocarbonyl)-1-methyl-1H-pyrazol-4-yl]-2-(2,3-dihydro-5-benzofuranyl)-4-thiazolecarboxamide]
3 | 1100 nM | CN1CCc2c(sc(NC(=O)c3csc(-c4ccc5c(c4)CCO5)n3)c2C(N)=O)C1 [Example 2.5, 2-{[2-(2,3-Dihydrobenzofuran-5-yl)thiazole-4-carbonyl]amino}-6-methyl-4,5,6,7-tetrahydrothieno[2,3-c]pyridine-3-carboxamide]
4 | 300 nM | NC(=O)c1ccccc1NC(=O)c1csc(-c2ccc3c(c2)OCO3)n1 [Example 3.1, N-[2-(Aminocarbonyl)phenyl]-2-(3,4-methylenedioxyphenyl)-4-thiazolecarboxamide]
5 | 3400 nM | CS(=O)(=O)c1cccc(-c2nc(C(=O)Nc3ccccc3C(N)=O)cs2)c1 [Example 3.2, N-[2-(Aminocarbonyl)phenyl]-2-(3-methylsulphonylphenyl)-4-thiazole-carboxamide]
6 | 120 nM | COc1ccc(-c2nc(C(=O)Nc3ccccc3C(N)=O)cs2)cc1F [Example 3.4, N-[2-(Aminocarbonyl)phenyl]-2-(3-fluoro-4-methoxyphenyl)-4-thiazole-carboxamide]
